According to article PMC11870037 (Molecules, 2024):
Read-outs that look alike come from different tables or passages of the source.

Legend:
hERG potassium channel = molecular target: T1, hERG potassium channel (Homo sapiens, UniProt Q12809); experiment: hERG whole-cell patch clamp in HEK 293 cells; type: cell-based
T1 construct: expressed in transfected cells; host or cells: HEK 293

SERT = molecular target: T2, SERT (Rattus norvegicus, UniProt P31652); experiment: biochemical; type: binding; details: for potency ratio among SERT, NET, and H3: ratio of binding Ki values for SERT
T2 construct: [3H]-paroxetine, rat cerebral cortex; from tissue; host or cells: rat cerebral cortex (membranes / crude synaptosomes)

adrenergic α1 receptor = experiment: Adrenergic α1 receptor binding assay ([3H]prazosin); details: rat cerebral cortex, means ± SEM of three experiments, read-out: Receptor Affinity Ki ± SEM α1
NET [1] = molecular target: T3, NET (Rattus norvegicus, UniProt Q63380); experiment: biochemical; details: Receptor Affinity Ki ± SEM NET, rat hippocampal membrane, [3H]nisoxetine; means ± SEM of three experiments
female rats = details: females; cited from earlier work
mice [2] = experiment: Tail suspension test (TST); type: in vivo, mouse; details: oral, immobility duration
mice [3] = details: oral, immobility duration
NET [4] = molecular target: T3, NET; experiment: Monoamine uptake transporter assay, [3H]NE uptake by NET; type: biochemical; details: 10 μM, n = 3
recombinant hH3R = recombinant hH3R (Homo sapiens, UniProt Q9Y5N1); experiment: H3 receptor intrinsic activity assay ([35S]GTPγS binding); type: biochemical; details: 10 μM, n = 3
[5] = rat cerebral cortex, [3H]-paroxetine, means ± SEM of three experiments, read-out: Receptor Affinity Ki ± SEM SERT

T2 sequence (P31652 whole entry): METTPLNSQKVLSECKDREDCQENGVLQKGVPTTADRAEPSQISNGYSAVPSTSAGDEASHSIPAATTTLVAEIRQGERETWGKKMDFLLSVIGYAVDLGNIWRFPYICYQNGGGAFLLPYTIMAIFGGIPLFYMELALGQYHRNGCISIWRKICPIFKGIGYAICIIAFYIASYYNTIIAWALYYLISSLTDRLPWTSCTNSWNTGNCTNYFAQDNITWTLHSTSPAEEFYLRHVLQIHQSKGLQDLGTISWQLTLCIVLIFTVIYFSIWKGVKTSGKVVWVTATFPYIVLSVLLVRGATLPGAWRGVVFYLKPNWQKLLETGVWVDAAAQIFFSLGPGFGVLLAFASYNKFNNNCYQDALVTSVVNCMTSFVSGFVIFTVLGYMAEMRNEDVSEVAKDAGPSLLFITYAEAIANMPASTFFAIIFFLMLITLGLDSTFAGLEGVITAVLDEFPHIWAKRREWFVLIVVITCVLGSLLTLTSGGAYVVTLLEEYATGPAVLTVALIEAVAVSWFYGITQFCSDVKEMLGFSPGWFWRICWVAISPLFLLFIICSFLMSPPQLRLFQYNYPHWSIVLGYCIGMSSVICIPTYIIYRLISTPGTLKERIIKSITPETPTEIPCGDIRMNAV
T3 sequence (Q63380 1-617): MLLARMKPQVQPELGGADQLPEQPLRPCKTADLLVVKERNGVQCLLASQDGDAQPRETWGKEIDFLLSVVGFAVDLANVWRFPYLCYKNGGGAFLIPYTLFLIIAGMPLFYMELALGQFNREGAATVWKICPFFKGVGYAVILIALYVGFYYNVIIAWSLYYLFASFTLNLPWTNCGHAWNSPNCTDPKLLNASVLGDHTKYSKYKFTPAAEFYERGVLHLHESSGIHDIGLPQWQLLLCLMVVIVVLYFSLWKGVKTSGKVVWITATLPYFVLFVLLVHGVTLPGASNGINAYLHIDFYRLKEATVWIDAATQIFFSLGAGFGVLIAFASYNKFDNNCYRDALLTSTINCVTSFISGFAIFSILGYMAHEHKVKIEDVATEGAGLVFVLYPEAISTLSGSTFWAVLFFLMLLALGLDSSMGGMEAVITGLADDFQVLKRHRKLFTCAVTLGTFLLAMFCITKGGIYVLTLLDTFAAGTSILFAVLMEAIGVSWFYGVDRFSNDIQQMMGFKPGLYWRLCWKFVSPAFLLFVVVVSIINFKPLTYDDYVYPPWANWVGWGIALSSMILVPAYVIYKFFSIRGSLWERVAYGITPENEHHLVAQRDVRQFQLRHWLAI
T1 sequence (Q12809 whole entry): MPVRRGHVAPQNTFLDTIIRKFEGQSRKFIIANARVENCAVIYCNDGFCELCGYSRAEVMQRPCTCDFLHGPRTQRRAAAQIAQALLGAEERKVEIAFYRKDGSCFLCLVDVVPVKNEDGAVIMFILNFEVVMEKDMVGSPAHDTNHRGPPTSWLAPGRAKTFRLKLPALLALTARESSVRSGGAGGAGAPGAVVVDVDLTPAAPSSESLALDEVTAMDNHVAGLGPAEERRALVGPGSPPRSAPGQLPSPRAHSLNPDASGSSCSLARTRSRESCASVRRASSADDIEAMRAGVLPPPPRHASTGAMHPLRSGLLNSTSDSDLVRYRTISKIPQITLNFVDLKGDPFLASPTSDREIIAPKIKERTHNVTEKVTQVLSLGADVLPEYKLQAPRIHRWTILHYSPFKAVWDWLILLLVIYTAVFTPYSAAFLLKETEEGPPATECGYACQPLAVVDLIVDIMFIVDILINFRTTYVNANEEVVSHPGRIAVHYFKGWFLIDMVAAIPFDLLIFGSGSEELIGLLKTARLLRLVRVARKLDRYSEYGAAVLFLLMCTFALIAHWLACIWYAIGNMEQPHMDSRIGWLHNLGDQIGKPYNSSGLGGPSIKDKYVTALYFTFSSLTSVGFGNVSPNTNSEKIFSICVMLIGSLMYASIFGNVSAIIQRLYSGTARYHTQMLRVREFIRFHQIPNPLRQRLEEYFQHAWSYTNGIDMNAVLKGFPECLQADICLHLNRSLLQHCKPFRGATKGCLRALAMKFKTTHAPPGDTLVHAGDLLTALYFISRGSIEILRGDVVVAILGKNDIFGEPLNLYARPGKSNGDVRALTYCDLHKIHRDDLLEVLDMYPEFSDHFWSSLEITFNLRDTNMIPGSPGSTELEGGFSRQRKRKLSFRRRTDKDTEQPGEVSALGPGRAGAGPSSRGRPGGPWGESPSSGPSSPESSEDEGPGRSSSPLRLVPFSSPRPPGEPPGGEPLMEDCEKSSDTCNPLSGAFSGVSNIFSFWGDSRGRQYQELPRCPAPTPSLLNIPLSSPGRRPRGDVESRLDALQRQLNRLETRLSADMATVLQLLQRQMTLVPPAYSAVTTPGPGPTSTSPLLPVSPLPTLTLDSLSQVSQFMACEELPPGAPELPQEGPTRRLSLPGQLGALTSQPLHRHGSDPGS
Sequence of recombinant hH3R (Q9Y5N1 whole entry): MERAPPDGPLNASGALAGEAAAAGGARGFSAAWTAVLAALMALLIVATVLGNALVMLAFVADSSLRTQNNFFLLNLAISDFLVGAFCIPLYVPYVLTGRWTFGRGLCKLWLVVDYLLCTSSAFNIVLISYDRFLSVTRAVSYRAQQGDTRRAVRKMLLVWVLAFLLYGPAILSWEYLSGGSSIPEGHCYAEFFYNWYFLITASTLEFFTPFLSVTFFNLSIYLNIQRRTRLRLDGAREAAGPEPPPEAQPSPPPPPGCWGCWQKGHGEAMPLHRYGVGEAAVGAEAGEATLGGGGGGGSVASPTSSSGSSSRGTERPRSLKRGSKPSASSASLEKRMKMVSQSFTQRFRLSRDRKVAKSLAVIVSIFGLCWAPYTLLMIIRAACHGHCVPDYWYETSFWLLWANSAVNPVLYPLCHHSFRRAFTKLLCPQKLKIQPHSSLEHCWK

SMILES: CN(C)CCC(Oc1cccc2c1OCO2)c1ccc(OCCCN2CCCC2)cc1.O=C(O)C(=O)O (centres unmarked) [Compound 11a, 3-(benzo[d][1,3]dioxol-4-yloxy)-N,N-dimethyl-3-(4-(3-(pyrrolidin-1-yl)propoxy)phenyl)propan-1-amine oxalate]
- IC50 (hERG potassium channel): 819 ± 90.4 nM
- Ki (SERT; [5]): 10.3 ± 0.9 nM
- potency ratio among SERT, NET, and H3 (SERT): < 10 fold
- melting point: 138 to 140 °C
- Ki (adrenergic α1 receptor): 428 ± 35.3 nM
- Ki (NET [1]): 19.2 ± 2.3 nM

SMILES: CN(C)CCC(Oc1cccc2c1OCO2)c1ccc(OCCCN2CCOCC2)cc1.O=C(O)C(=O)O (centres unmarked) [Compound 11c, 3-(benzo[d][1,3]dioxol-4-yloxy)-N,N-dimethyl-3-(4-(3-morpholinopropoxy)phenyl)propan-1-amine oxalate]
- Ki (SERT; [5]): 43.2 ± 3.8 nM
- melting point: 169 to 170 °C
- Ki (NET [1]): 32.6 ± 2.7 nM

SMILES: CN(C)CCC(Oc1cccc2c1OCO2)c1ccc(OCCCN2CCN(C)CC2)cc1.O=C(O)C(=O)O (centres unmarked) [Compound 11d, 3-(benzo[d][1,3]dioxol-4-yloxy)-N,N-dimethyl-3-(4-(3-(4-methylpiperazin-1-yl)propoxy)phenyl)propan-1-amine oxalate]
- Ki (SERT; [5]): 52.3 ± 2.8 nM
- melting point: 155 to 156 °C
- Ki (NET [1]): 86.8 ± 9.1 nM

SMILES: CCN1CCN(CCCOc2ccc(C(CCN(C)C)Oc3cccc4c3OCO4)cc2)CC1.O=C(O)C(=O)O (centres unmarked) [Compound 11e, 3-(benzo[d][1,3]dioxol-4-yloxy)-3-(4-(3-(4-ethylpiperazin-1-yl)propoxy)phenyl)-N,N-dimethylpropan-1-amine oxalate]
- Ki (SERT; [5]): 39.6 ± 3.3 nM
- melting point: 187 to 189 °C
- Ki (NET [1]): 66.9 ± 5.1 nM

SMILES: CC(C)N1CCN(CCCOc2ccc(C(CCN(C)C)Oc3cccc4c3OCO4)cc2)CC1.O=C(O)C(=O)O (centres unmarked) [Compound 11f, 3-(benzo[d][1,3]dioxol-4-yloxy)-3-(4-(3-(4-isopropylpiperazin-1-yl)propoxy)phenyl)-N,N-dimethylpropan-1-amine oxalate]
- Ki (SERT; [5]): 35.7 ± 3.1 nM
- melting point: 160 to 162 °C
- Ki (NET [1]): 57.9 ± 6.4 nM

SMILES: CN(C)CCC(Oc1cccc2c1OCO2)c1ccc(OCCCN2CC3CCCC3C2)cc1.O=C(O)C(=O)O (centres unmarked) [Compound 11g, 3-(benzo[d][1,3]dioxol-4-yloxy)-3-(4-(3-(hexahydrocyclopenta[c]pyrrol-2(1H)-yl)propoxy)phenyl)-N,N-dimethylpropan-1-amine oxalate]
- Ki (SERT; [5]): 31.3 ± 4 nM
- melting point: 110 to 112 °C
- Ki (NET [1]): 48.2 ± 4.2 nM

SMILES: CN(C)CCC(Oc1cccc2c1OCO2)c1cccc(OCCCN2CCCC2)c1.O=C(O)C(=O)O (centres unmarked) [Compound 11h, 3-(benzo[d][1,3]dioxol-4-yloxy)-N,N-dimethyl-3-(3-(3-(pyrrolidin-1-yl)propoxy)phenyl)propan-1-amine oxalate]
- Ki (SERT; [5]): 192 ± 18.8 nM
- melting point: 104 to 106 °C
- Ki (NET [1]): 144 ± 13.5 nM

SMILES: CN(C)CCC(Oc1cccc2c1OCO2)c1cccc(OCCCN2CCCCC2)c1.O=C(O)C(=O)O (centres unmarked) [Compound 11i, 3-(benzo[d][1,3]dioxol-4-yloxy)-N,N-dimethyl-3-(3-(3-(piperidin-1-yl)propoxy)phenyl)propan-1-amine oxalate]
- Ki (SERT; [5]): 236 ± 26.1 nM
- melting point: 81 to 83 °C
- Ki (NET [1]): 105 ± 9.8 nM

SMILES: CN(C)CCC(Oc1cccc2c1OCO2)c1cccc(OCCCN2CCOCC2)c1.O=C(O)C(=O)O (centres unmarked) [Compound 11j, 3-(benzo[d][1,3]dioxol-4-yloxy)-N,N-dimethyl-3-(3-(3-morpholinopropoxy)phenyl)propan-1-amine oxalate]
- Ki (SERT; [5]): 465 ± 39.8 nM
- melting point: 95 to 98 °C
- Ki (NET [1]): 153 ± 12.7 nM

SMILES: CC(C)N1CCN(CCCOc2cccc(C(CCN(C)C)Oc3cccc4c3OCO4)c2)CC1.O=C(O)C(=O)O (centres unmarked) [Compound 11k, 3-(benzo[d][1,3]dioxol-4-yloxy)-3-(3-(3-(4-isopropylpiperazin-1-yl)propoxy)phenyl)-N,N-dimethylpropan-1-amine oxalate]
- Ki (SERT; [5]): 163 ± 17.6 nM
- melting point: 185 to 186 °C
- Ki (NET [1]): 111 ± 10.3 nM

SMILES: CN(C)CCCOc1ccc(C(CCN(C)C)Oc2cccc3c2OCO3)cc1.O=C(O)C(=O)O (centres unmarked) [Compound 11l, 3-(benzo[d][1,3]dioxol-4-yloxy)-3-(4-(3-(dimethylamino)propoxy)phenyl)-N,N-dimethylpropan-1-amine oxalate]
- Ki (SERT; [5]): 17.1 ± 1.6 nM
- melting point: 121 to 122 °C
- Ki (NET [1]): 115 ± 12.3 nM

SMILES: CCN(CC)CCCOc1ccc(C(CCN(C)C)Oc2cccc3c2OCO3)cc1.O=C(O)C(=O)O (centres unmarked) [Compound 11m, 3-(benzo[d][1,3]dioxol-4-yloxy)-3-(4-(3-(diethylamino)propoxy)phenyl)-N,N-dimethylpropan-1-amine oxalate]
- Ki (SERT; [5]): 28.4 ± 11.3 nM
- melting point: 98 to 100 °C
- Ki (NET [1]): 85.2 ± 9.1 nM

SMILES: CN(C)CCC(Oc1cccc2c1OCO2)c1ccc(OCCN2CCCCC2)cc1.O=C(O)C(=O)O (centres unmarked) [Compound 11n, 3-(benzo[d][1,3]dioxol-4-yloxy)-N,N-dimethyl-3-(4-(2-(piperidin-1-yl)ethoxy)phenyl)propan-1-amine oxalate]
- Ki (SERT; [5]): 26.1 ± 2.3 nM
- melting point: 116 to 118 °C
- Ki (NET [1]): 37.3 ± 4.2 nM

SMILES: CN(C)CCC(Oc1cccc2c1OCO2)c1ccc(OCCCCN2CCCCC2)cc1.O=C(O)C(=O)O (centres unmarked) [Compound 11o, 3-(benzo[d][1,3]dioxol-4-yloxy)-N,N-dimethyl-3-(4-(4-(piperidin-1-yl)butoxy)phenyl)propan-1-amine oxalate]
- Ki (SERT; [5]): 49.2 ± 4.8 nM
- melting point: 169 to 171 °C
- Ki (NET [1]): 64.6 ± 5.5 nM

SMILES: CC1CCCCN1CCCOc1ccc(C(CCN(C)C)Oc2cccc3c2OCO3)cc1.O=C(O)C(=O)O (centres unmarked) [Compound 11p, 3-(benzo[d][1,3]dioxol-4-yloxy)-N,N-dimethyl-3-(4-(3-(2-methylpiperidin-1-yl)propoxy)phenyl)propan-1-amine oxalate]
- Ki (SERT; [5]): 20.6 ± 1.9 nM
- melting point: 129 to 131 °C
- Ki (NET [1]): 35.4 ± 3.2 nM

SMILES: CC1CCCN(CCCOc2ccc(C(CCN(C)C)Oc3cccc4c3OCO4)cc2)C1.O=C(O)C(=O)O (centres unmarked) [Compound 11q, 3-(benzo[d][1,3]dioxol-4-yloxy)-N,N-dimethyl-3-(4-(3-(3-methylpiperidin-1-yl)propoxy)phenyl)propan-1-amine oxalate]
- IC50 (hERG potassium channel): 780 ± 68.5 nM
- Ki (SERT; [5]): 12.1 ± 1.6 nM
- potency ratio among SERT, NET, and H3 (SERT): < 10 fold
- melting point: 130 to 132 °C
- Ki (adrenergic α1 receptor): 307 ± 28.1 nM
- Ki (NET [1]): 20.7 ± 2.1 nM

SMILES: CC1CCN(CCCOc2ccc(C(CCN(C)C)Oc3cccc4c3OCO4)cc2)CC1.O=C(O)C(=O)O (centres unmarked) [Compound 11r, 3-(benzo[d][1,3]dioxol-4-yloxy)-N,N-dimethyl-3-(4-(3-(4-methylpiperidin-1-yl)propoxy)phenyl)propan-1-amine oxalate]
- Ki (SERT; [5]): 27.1 ± 1.6 nM
- melting point: 126 to 128 °C
- Ki (NET [1]): 38.3 ± 3.5 nM

SMILES: CC1CC(C)CN(CCCOc2ccc(C(CCN(C)C)Oc3cccc4c3OCO4)cc2)C1.O=C(O)C(=O)O (centres unmarked) [Compound 11s, 3-(benzo[d][1,3]dioxol-4-yloxy)-3-(4-(3-(3,5-dimethylpiperidin-1-yl)propoxy)phenyl)-N,N-dimethylpropan-1-amine oxalate]
- Ki (SERT; [5]): 30.3 ± 2.6 nM
- melting point: 140 to 142 °C
- Ki (NET [1]): 25.1 ± 2.8 nM

SMILES: CN(C)CCC(Oc1cccc2c1OCO2)c1ccc(OCCCN2CCC(F)CC2)cc1.O=C(O)C(=O)O (centres unmarked) [Compound 11t, 3-(benzo[d][1,3]dioxol-4-yloxy)-3-(4-(3-(4-fluoropiperidin-1-yl)propoxy)phenyl)-N,N-dimethylpropan-1-amine oxalate]
- Ki (SERT; [5]): 34.2 ± 2.8 nM
- melting point: 134 to 136 °C
- Ki (NET [1]): 42.5 ± 4.6 nM

SMILES: CN(C)CCC(Oc1cccc2c1OCO2)c1ccc(OCCCN2CCC(Cl)CC2)cc1.O=C(O)C(=O)O (centres unmarked) [Compound 11u, 3-(benzo[d][1,3]dioxol-4-yloxy)-3-(4-(3-(4-chloropiperidin-1-yl)propoxy)phenyl)-N,N-dimethylpropan-1-amine oxalate]
- Ki (SERT; [5]): 39.5 ± 4 nM
- melting point: 145 to 146 °C
- Ki (NET [1]): 50.2 ± 4.9 nM

SMILES: CN(C)CCC(Oc1cccc2c1OCO2)c1ccc(OCCCN2CCC(C#N)CC2)cc1.O=C(O)C(=O)O (centres unmarked) [Compound 11v, 1-(3-(4-(1-(benzo[d][1,3]dioxol-4-yloxy)-3-(dimethylamino)propyl)phenoxy)propyl)piperidine-4-carbonitrile oxalate]
- Ki (SERT; [5]): 60.5 ± 5.7 nM
- melting point: 148 to 151 °C
- Ki (NET [1]): 48.6 ± 6.4 nM

SMILES: CNCC[C@H](Oc1cccc2ccccc12)c1cccs1 [Duloxetine, reference compound]
- LD50 (female rats): 279 mg/kg
- minimal effective dose (MED) in TST (mice [2]): 16 mg/kg
- minimal effective dose (MED) in FST (mice [3]): 16 mg/kg
- Ki (adrenergic α1 receptor): 1010 ± 97.8 nM

SMILES: CNCCC(Oc1ccccc1OC)c1ccccc1 (centres unmarked) [Nisoxetine, reference compound]
- inhibition at 10 µM (NET [4]): 99.8 ± 1.9%

SMILES: Clc1ccc(CCCOCCCN2CCCCC2)cc1 [Pitolisant, reference compound]
- inhibition at 10 µM (recombinant hH3R): 99.3 ± 2.5%
- Ki (SERT; Receptor Affinity Ki ± SEM SERT): > 1000 nM
- Ki (NET [1]): > 1000 nM
